Experimental data taken from patent US9040458B2, “Safening composition of 6-(trisubstituded phenyl)-4-amino-2-pyridinecarboxylate herbicides and cloquintocet-mexyl for cereal crops” (Dow AgroSciences LLC, priority 2008, dated 2015).
Counter-ions that a name gives are not always drawn.

Columns and labels:
[1] = test system: LAMPU (purple deadnettle); test: Postemergence herbicidal activity, greenhouse, visual injury; assay type: in vivo, Lamium purpureum; conditions: 20-22 d
Protocol: (§1) Seeds of the desired test plant species were planted in Sun Gro MetroMix® 306 planting mixture, which typically has a pH of 6.0 to 6.8 and an organic matter content of about 30 percent, in plastic pots with a surface area of 103.2 square centimeters (cm^2). When required to ensure good germination and healthy plants, a fungicide treatment and/or other chemical or physical treatment was applied. The plants were grown for 7-36 days (d) in a greenhouse with an approximate […] photoperiod which was maintained at about 18° C. during the day and 17° C. during the night. Nutrients and water were added on a regular basis and supplemental lighting was provided with overhead metal halide 1000-Watt lamps as necessary. The plants were employed for testing when they reached the second or third true leaf stage.
(§2) Weighed amounts of esters (methyl) or salts (TEA [triethylammonium], potassium [K]) of 4-amino-3-chloro-6-(4-chloro-2-fluoro-3-methoxyphenyl)pyridine-2-carboxylic acid (Compound 1) were dissolved in a volume of 97:3 volume/volume (v/v) acetone/dimethylsulfoxide (DMSO) to obtain stock solutions. […] The concentrated stock solutions were diluted with an aqueous mixture of 1.5% v/v of Agri-dex crop oil concentrate to provide the appropriate application rates. Compound requirements are based upon a 12 mL application volume at a rate of 187 liters per hectare (L/ha). Stocks solutions of the safeners were prepared following the same procedure. Spray solutions of the safeners and experimental compound mixtures were prepared by adding the appropriate volume of both stock solutions to the appropriate amount of dilution solution to form a 12 mL spray solution with active ingredients in two-way combinations. Formulated compounds were applied to the plant material with an overhead Mandel track sprayer equipped with 8002E nozzles calibrated to deliver 187 L/ha over an application area of 0.503 square meters (m^2) at a spray height of 18 inches (43 centimeters (cm)) above average plant canopy. Control plants were sprayed in the same manner with the solvent blank.
(§3) The treated plants and control plants were placed in a greenhouse as described above and watered by sub-irrigation to prevent wash-off of the test compounds. After 20-22 d, the condition of the test plants as compared with that of the control plants was determined visually and scored on a scale of 0 to 100 percent where 0 corresponds to no injury and 100 corresponds to complete kill.
(§4) Colby's equation was used to determine the herbicidal effects expected from the mixtures (Colby, S. R., Calculation of the synergistic and antagonistic response of herbicide combinations. Weeds 1967, 15, 20-22.).
(§5) The following equation was used to calculate the expected activity of mixtures containing two active ingredients, A and B: Expected=A+B−(A×B/100)
(§6) A=observed efficacy of active ingredient A at the same concentration as used in the mixture.
(§7) B=observed efficacy of active ingredient B at the same concentration as used in the mixture.

PAPRH (corn poppy) = test: as above; assay type: in vivo, Papaver rhoeas; conditions: 20-22 d
Protocol: as §1, §2, §3, §4, §5, §6, §7

[2] = test system: HORVS = Hordeum vulgare (spring barley); test: Postemergence herbicidal safening, greenhouse, visual injury; assay type: in vivo; conditions: 20-22 d
Protocol: as §1, §2, §3, §4, §5, §6, §7

[3] = test system: TRZAS = Triticum aestivum (spring wheat); test: as above; assay type: in vivo; conditions: 20-22 d
Protocol: as §1, §2, §3, §4, §5, §6, §7

[4] = test system: SASKR = Salsola iberica (Russian thistle); test: Postemergence herbicidal activity, greenhouse, visual injury; assay type: in vivo; conditions: applied alone at 140 g/ha; 20-22 d; listed as (1) K-salt
Protocol: as §1, §2, §3, §4, §5, §6, §7

[5] = test system: VERPE = Veronica persica (bird's-eye speedwell); test: as above; assay type: in vivo; conditions: applied alone at 140 g/ha; 20-22 d; listed as (1) K-salt
Protocol: as §1, §2, §3, §4, §5, §6, §7

[6] = test system: KCHSC = Kochia scoparia (kochia); test: as above; assay type: in vivo; conditions: applied alone at 140 g/ha; 20-22 d; listed as (1) K-salt
Protocol: as §1, §2, §3, §4, §5, §6, §7

[7] = test system: VIOTR = Viola tricolor (wild pansy); test: as above; assay type: in vivo; conditions: applied alone at 140 g/ha; 20-22 d; listed as (1) K-salt
Protocol: as §1, §2, §3, §4, §5, §6, §7

[8] = test system: MATCH = Matricaria chamomila (scented mayweed); test: as above; assay type: in vivo; conditions: applied alone at 140 g/ha; 20-22 d; listed as (1) K-salt
Protocol: as §1, §2, §3, §4, §5, §6, §7

[9] = applied alone at 8.75 g/ha, listed as (1) K-salt
[10] = applied alone at 35 g/ha, listed as (1) K-salt
[11] = applied alone at 140 g/ha, listed as (1) K-salt

O=C(O)COc1ccc(Cl)c2cccnc12 [Cloquintocet-acid, [(5-chloro-8-quinolinyl)oxy]acetic acid]
LAMPU Ob (observed injury) ([1]; applied alone at 0.55 g/ha): 0%
LAMPU Ob (observed injury) ([1]; applied alone at 1.1 g/ha): 0%
LAMPU Ob (observed injury) ([1]; applied alone at 2.2 g/ha): 0%
LAMPU Ob (observed injury) ([1]; applied alone at 4.4 g/ha): 0%
PAPRH Ob (observed injury) (PAPRH (corn poppy); applied alone at 0.55 g/ha): 0%
PAPRH Ob (observed injury) (PAPRH (corn poppy); applied alone at 1.1 g/ha): 0%
PAPRH Ob (observed injury) (PAPRH (corn poppy); applied alone at 2.2 g/ha): 0%
PAPRH Ob (observed injury) (PAPRH (corn poppy); applied alone at 4.4 g/ha): 0%
HORVS Ob (observed injury) ([2]; applied alone at 0.55 g/ha): 0%
HORVS Ob (observed injury) ([2]; applied alone at 1.1 g/ha): 0%
HORVS Ob (observed injury) ([2]; applied alone at 2.2 g/ha): 0%
HORVS Ob (observed injury) ([2]; applied alone at 4.4 g/ha): 0%
TRZAS Ob (observed injury) ([3]; applied alone at 0.55 g/ha): 0%
TRZAS Ob (observed injury) ([3]; applied alone at 1.1 g/ha): 0%
TRZAS Ob (observed injury) ([3]; applied alone at 2.2 g/ha): 0%
TRZAS Ob (observed injury) ([3]; applied alone at 4.4 g/ha): 0%

COc1c(Cl)ccc(-c2cc(N)c(Cl)c(C(=O)O)n2)c1F [Compound (1) K-salt, 4-amino-3-chloro-6-(4-chloro-2-fluoro-3-methoxyphenyl)pyridine-2-carboxylic acid]
SASKR Ob (observed injury) [4]: 87%
VERPE Ob (observed injury) [5]: 87%
KCHSC Ob (observed injury) [6]: 100%
VIOTR Ob (observed injury) [7]: 63%
MATCH Ob (observed injury) [8]: 88%
HORVS Ob (observed injury) [2, 9]: 25%
HORVS Ob (observed injury) [2, 10]: 38%
HORVS Ob (observed injury) [2, 11]: 45%
TRZAS Ob (observed injury) [3, 9]: 15%
TRZAS Ob (observed injury) [3, 10]: 43%
TRZAS Ob (observed injury) ([3]; applied alone at 70 g/ha, listed as (1) K-salt): 11%
TRZAS Ob (observed injury) [3, 11]: 52%
